The record followed here is patent US11091479B2, “Triazolopyridin-3-ones or their salts and pharmaceutical compositions comprising the same” (YUHAN CORPORATION, priority 2018, dated 2021).

Where a name gives a salt, the structure may show the parent alone. Where only a bound is given, the exact number is not on record here.

Holding throughout (format): biochemical
The target in experiment [1] is T1, recombinant human DAO (diamine oxidase) (Homo sapiens, UniProt P19801).
T1 construct: purchased R&D systems
T1 sequence (P19801 20-751): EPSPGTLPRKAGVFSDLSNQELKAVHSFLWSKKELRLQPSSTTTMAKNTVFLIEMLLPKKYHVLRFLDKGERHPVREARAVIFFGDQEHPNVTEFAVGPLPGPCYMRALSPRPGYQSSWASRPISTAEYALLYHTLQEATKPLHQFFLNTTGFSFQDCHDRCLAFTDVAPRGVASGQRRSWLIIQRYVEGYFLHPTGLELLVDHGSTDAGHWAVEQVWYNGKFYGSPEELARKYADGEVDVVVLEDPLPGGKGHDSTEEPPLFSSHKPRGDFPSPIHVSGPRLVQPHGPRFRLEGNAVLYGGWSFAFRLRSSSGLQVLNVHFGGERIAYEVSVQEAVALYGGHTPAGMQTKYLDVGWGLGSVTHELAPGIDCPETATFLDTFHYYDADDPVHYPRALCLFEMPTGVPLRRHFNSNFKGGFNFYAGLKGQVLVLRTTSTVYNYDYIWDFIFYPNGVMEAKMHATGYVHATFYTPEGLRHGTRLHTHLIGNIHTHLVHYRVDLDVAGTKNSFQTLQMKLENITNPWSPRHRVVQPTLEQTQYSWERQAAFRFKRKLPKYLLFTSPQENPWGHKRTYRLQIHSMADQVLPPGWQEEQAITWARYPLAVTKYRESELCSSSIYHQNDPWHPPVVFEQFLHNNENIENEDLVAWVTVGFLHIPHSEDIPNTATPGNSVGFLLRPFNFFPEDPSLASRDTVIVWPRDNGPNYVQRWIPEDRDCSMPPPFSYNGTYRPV
Description: Activity on recombinant human DAO, method similar to VAP-1 assay, 1 mM putrescine substrate. The conditions noted are these: read-out: Inhibitory Activity (IC50, nM) DAO. The essentials:
(§1)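 Amplex Red/HRP-coupled H2O2 fluorescence assay run as for VAP-1: enzyme in 50 mM sodium phosphate pH 7.4 preincubated with compound 30 min at 37 °C, then substrate (putrescine for DAO, benzylamine for MAO-B, tyramine for MAO-A) added with 200 uM Amplex Red, 1 U/mL HRP. Signal rate over 1-2 h; IC50 from 4-parameter logistic fit.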

Experiment [2] deals with T2, recombinant human MAO-A (monoamine oxidase-A) (Homo sapiens, UniProt P21397).
T2 construct: purchased Sigma-Aldrich
T2 sequence (P21397 1-527): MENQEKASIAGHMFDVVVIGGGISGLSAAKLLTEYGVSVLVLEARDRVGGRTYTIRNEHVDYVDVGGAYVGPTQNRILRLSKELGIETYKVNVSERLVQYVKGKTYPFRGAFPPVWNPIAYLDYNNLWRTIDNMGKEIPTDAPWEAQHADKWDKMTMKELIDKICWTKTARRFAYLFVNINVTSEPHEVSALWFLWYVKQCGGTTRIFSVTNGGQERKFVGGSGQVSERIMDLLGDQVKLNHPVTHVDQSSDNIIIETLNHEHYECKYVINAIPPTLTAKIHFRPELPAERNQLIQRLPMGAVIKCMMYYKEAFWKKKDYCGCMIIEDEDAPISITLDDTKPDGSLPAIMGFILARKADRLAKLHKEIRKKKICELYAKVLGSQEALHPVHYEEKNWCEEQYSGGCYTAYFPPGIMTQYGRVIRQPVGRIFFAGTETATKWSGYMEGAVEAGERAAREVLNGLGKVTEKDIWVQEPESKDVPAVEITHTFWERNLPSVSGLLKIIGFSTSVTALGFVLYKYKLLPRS
Description: Activity on recombinant human MAO-A, method similar to VAP-1 assay, 0.5 mM tyramine substrate. The settings on record: read-out: Inhibitory Activity (IC50, nM) MAO-A. Put shortly:
as §1

Experiment [3] has as its target T3, recombinant human MAO-B (monoamine oxidase-B) (Homo sapiens, UniProt P27338).
T3 construct: purchased Sigma-Aldrich
T3 sequence (P27338 1-520): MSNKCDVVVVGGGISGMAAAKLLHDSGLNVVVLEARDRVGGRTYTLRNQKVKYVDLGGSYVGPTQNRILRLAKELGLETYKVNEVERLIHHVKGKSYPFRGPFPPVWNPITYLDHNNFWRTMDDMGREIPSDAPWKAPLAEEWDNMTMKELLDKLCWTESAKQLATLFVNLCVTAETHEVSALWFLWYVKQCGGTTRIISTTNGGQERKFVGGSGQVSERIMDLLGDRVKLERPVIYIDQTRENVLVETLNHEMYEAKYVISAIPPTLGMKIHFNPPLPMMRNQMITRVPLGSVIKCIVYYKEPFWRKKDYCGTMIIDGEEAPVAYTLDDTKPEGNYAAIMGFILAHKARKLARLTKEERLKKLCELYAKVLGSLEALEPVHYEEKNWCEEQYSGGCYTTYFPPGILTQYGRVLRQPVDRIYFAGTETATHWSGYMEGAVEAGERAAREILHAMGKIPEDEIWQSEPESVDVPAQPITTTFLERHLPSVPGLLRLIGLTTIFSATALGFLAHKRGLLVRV
As to the kind of experiment: Activity on recombinant human MAO-B, method similar to VAP-1 assay, 1 mM benzylamine substrate. The conditions noted are these: read-out: Inhibitory Activity (IC50, nM) MAO-B. The essentials: as §1

The target of the next experiment is T4, recombinant human VAP-1 (Homo sapiens, UniProt Q16853).
T4 construct: purchased R&D systems
T4 sequence (Q16853 1-763): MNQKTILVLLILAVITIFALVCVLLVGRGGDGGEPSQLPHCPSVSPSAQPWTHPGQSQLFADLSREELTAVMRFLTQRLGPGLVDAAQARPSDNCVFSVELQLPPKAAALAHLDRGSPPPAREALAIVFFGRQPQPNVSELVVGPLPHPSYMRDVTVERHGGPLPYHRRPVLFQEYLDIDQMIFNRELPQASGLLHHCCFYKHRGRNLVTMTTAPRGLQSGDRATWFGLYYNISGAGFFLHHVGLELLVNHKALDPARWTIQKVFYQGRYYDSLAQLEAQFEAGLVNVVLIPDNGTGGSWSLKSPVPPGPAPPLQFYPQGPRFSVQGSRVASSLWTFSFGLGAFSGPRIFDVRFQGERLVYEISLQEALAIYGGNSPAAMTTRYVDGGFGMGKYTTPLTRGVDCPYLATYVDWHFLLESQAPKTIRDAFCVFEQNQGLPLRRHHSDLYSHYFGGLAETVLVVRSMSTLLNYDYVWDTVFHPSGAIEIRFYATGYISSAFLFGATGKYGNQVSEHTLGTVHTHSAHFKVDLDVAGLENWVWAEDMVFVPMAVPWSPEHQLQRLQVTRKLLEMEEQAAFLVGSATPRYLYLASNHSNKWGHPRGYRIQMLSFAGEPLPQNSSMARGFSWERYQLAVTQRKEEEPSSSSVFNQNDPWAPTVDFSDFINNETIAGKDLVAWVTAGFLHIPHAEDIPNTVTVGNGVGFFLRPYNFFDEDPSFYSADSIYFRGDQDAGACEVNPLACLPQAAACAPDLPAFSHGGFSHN
As to the kind of experiment: Activity on recombinant human VAP-1, HRP-coupled Amplex Red hydrogen peroxide assay, benzylamine substrate. The conditions noted are these: 30 min incubation at 37° C., 1 mM benzylamine, read-out: Inhibitory Activity (IC50, nM) human VAP-1. Put shortly:
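Recombinant human VAP-1 in 50 mM sodium phosphate pH 7.4 preincubated with compound for 30 min at 37 °C, then 1 mM benzylamine, 200 uM Amplex Red and 1 U/mL HRP added. Resorufin fluorescence (ex 544/em 590 nm) followed over 1-2 h; % signal-rate decrease vs DMSO control, 8-point 4-parameter fit for IC50.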

Usually IC50 stands for the concentration at which inhibition is half-maximal.

On to `CN(C)c1ccc(C#Cc2ccn3c(=O)n(CC(CN)=C(F)F)nc3c2)cn1` [Example 57, 2-[2-(aminomethyl)-3,3-difluoro-allyl]-7-[2-[6-(dimethylamino)-3-pyridyl]ethynyl]-[1,2,4]triazolo[4,3-a]pyridin-3-one trifluoroacetate], for which the IC50 is 120 nM in experiment [1], > 100000 nM in experiment [2], 6200 nM in experiment [3] and 0.3 nM on recombinant human VAP-1.
On the same counts, the results for `CS(=O)(=O)c1ccc(-c2ccn3c(=O)n(CC(CN)=C(F)F)nc3c2)cc1` [Example 48, 2-[2-(aminomethyl)-3,3-difluoro-allyl]-7-(4-methylsulfonylphenyl)-[1,2,4]triazolo[4,3-a]pyridin-3-one trifluoroacetate] are 100 nM, > 100000 nM, 800 nM and 0.1 nM.
On the same counts, the results for `CN1CCOc2cc(-c3ccn4c(=O)n(C/C(=C/F)CN)nc4c3)ccc21` [Example 44, 2-[(2E)-2-(aminomethyl)-3-fluoroprop-2-en-1-yl]-7-(4-methyl-3,4-dihydro-2H-1,4-benzoxazin-7-yl)[1,2,4]triazolo[4,3-a]pyridin-3(2H)-one hydrochloride] are 400 nM, > 100000 nM, < 10 nM and 1 nM.
`CC(=O)Nc1nc2cc(-c3ccc4nn(C/C(=C/F)CN)c(=O)n4c3)ccc2s1` [Example 15, N-[5-[2-[(2E)-2-(aminomethyl)-3-fluoroprop-2-en-1-yl]-3-oxo-2,3-dihydro[1,2,4]triazolo[4,3-a]pyridin-6-yl]-1,3-benzothiazol-2-yl]acetamide trifluoroacetate]: the IC50 was < 100 nM in experiment [1], > 100000 nM in experiment [2], 597 nM in experiment [3] and 9.3 nM at recombinant human VAP-1.
Turning to `CN(C)c1ccc(-c2ccn3c(=O)n(CC(CN)=C(F)F)nc3c2)cn1` [Example 51, 2-[2-(aminomethyl)-3,3-difluoro-allyl]-7-[6-(dimethylamino)-3-pyridyl]-[1,2,4]triazolo[4,3-a]pyridin-3-one trifluoroacetate], the IC50 in experiment [1] was 17 nM; in experiment [2], > 100000 nM; in experiment [3], 150 nM; on recombinant human VAP-1 it was 0.4 nM.
In the case of `NC/C(=C\F)Cn1nc2ccc(-c3ccc(S(=O)(=O)N4CCOCC4)cc3)cn2c1=O` [Example 4, 2-[(2E)-2-(aminomethyl)-3-fluoroprop-2-en-1-yl]-6-[4-(morpholin-4-ylsulfonyl)phenyl][1,2,4]triazolo[4,3-a]pyridin-3(2H)-one trifluoroacetate], the IC50 is < 100 nM in experiment [1], > 100000 nM in experiment [2], > 10000 nM in experiment [3] and 6.2 nM at recombinant human VAP-1.
On the same counts, the results for `NCC(Cn1nc2cc(-c3ccc4c(c3)OCO4)ccn2c1=O)=C(F)F` [Example 52, 2-[2-(aminomethyl)-3,3-difluoro-allyl]-7-(1,3-benzodioxol-5-yl)-[1,2,4]triazolo[4,3-a]pyridin-3-one trifluoroacetate] are 160 nM, > 100000 nM, 37 nM and 0.3 nM.
As to `CN1C(=O)CCc2cc(-c3ccn4c(=O)n(CC(CN)=C(F)F)nc4c3)ccc21` [Example 54, 6-[2-[2-(aminomethyl)-3,3-difluoro-allyl]-3-oxo-[1,2,4]triazolo[4,3-a]pyridin-7-yl]-1-methyl-3,4-dihydroquinolin-2-one trifluoroacetate], the IC50 in experiment [1] was 22 nM; in experiment [2], > 100000 nM; in experiment [3] it was 170 nM; on recombinant human VAP-1, 0.1 nM.
The corresponding values for `NC/C(=C\F)Cn1nc2cc(-c3cccc(-c4noc(C5CC5)n4)c3)ccn2c1=O` [Example 28, 2-[(2E)-2-(aminomethyl)-3-fluoroprop-2-en-1-yl]-7-[3-(5-cyclopropyl-1,2,4-oxadiazol-3-yl)phenyl][1,2,4]triazolo[4,3-a]pyridin-3(2H)-one hydrochloride] are 5 nM, > 100000 nM, 290 nM and 0.5 nM.
As to `NC/C(=C\F)Cn1nc2cc(-c3ccc4nn[nH]c4c3)ccn2c1=O` [Example 39, 2-[(2E)-2-(aminomethyl)-3-fluoroprop-2-en-1-yl]-7-(1H-benzotriazol-6-yl)[1,2,4]triazolo[4,3-a]pyridin-3(2H)-one hydrochloride], the IC50 in experiment [1] stood at 0.2 nM; in experiment [2], 96000 nM; in experiment [3], 1100 nM; at recombinant human VAP-1, 0.1 nM.
